Experiment: Evaluation of Antiviral Activity of Compounds Against Human Coronavirus (HCov) 229E: Compounds were assayed using standard methods against multiple coronaviral strains, including HCoV 229E and OC43 strains. […] The antiviral activity of compounds was calculated based on the protection of the virus-induced CPE at each concentration normalized by the virus control.

Row | SMILES | IC50
1 | N#CC1(NC(=O)[C@@H](CC2CC2)NC(=O)OCc2ccccc2)C[C@H]2CC[C@@H]1[C@H]1C(=O)NC(=O)[C@@H]21 (single isomer, unassigned; isomer 1) | > 30 µM
2 | COc1cccc2[nH]c(C(=O)N[C@H](CC3CC3)C(=O)N[C@@]3(C#N)CC4CCC3[C@H]3C(=O)NC(=O)[C@@H]43)cc12 (single isomer, unassigned; isomer 1) | > 30 µM

From ChEMBL document CHEMBL5729382, “Inhibitors of cysteine proteases and methods of use thereof” (2022)
